Earlier results on one molecule are cited in patent US8481576B2 (Abbott GmbH & Co. KG, priority 2004, dated 2013).

The structures appear in SMILES notation.

The data set deals with HIV-1 RT (Human immunodeficiency virus type 1 group M subtype B, UniProt P03366). The settings on record: Bioorg. Med. Chem. Lett. 2000 (10), 265-268; cited from earlier work.

Turning to `COc1ccccc1CCNC(=N)Nc1nccs1` [N-[2-(2-methoxyphenyl)ethyl]-N′-1,3-thiazole-2-ylguanidine], the biological activity entry is given as “did not show any demonstrable biological activity”.
